# Tests used:
# Format in all cases: functional
# [1] = organism: Mus musculus; assay: Maximum reduction in blood glucose levels in KKA mice at a dosage of 0.005% in diet
# [2] = organism: Mus musculus; assay: Maximum reduction in plasma triglyceride levels in KKA mice at a dosage of 0.005% in diet
# [3] = organism: Mus musculus; assay: Maximum reduction in blood glucose levels in KKA mice at a dosage of 0.001% in diet
# [4] = organism: Mus musculus; assay: Effective dose to reduce 25% of glucose levels in blood; conditions: Mus musculus, Blood
# [5] = organism: Mus musculus; assay: Maximum reduction in plasma triglyceride levels in KKA mice at a dosage of 0.001% in diet
# [6] = organism: Mus musculus; assay: Effective dose to reduce 25% of triglyceride levels in plasma
SMILES,Reduction [1],Reduction [2],Reduction [3],ED25 [4],Reduction [5],ED25 [6]
O=C1NC(=O)C(Cc2ccc(OCc3nc4ccccc4o3)cc2)S1 (stereo not drawn),35%,24%,,,,
Cc1nc(C(=O)COc2ccc(/C=C3\SC(=O)NC3=O)cc2)c(C)o1,33%,29%,,,,
Cc1nc(CCOc2ccc(CC3SC(=O)NC3=O)cc2)c(C)o1 (stereo not drawn),55%,56%,27%,2 mg/kg/day,10%,3 mg/kg/day
O=C1NC(=O)C(Cc2ccc(OCCc3csc(-c4ccccc4)n3)cc2)S1 (stereo not drawn),52%,63%,39%,0.5 mg/kg/day,54%,0.3 mg/kg/day
CCCc1nc(CCOc2ccc(CC3SC(=O)NC3=O)cc2)co1 (stereo not drawn),52%,65%,29%,2 mg/kg/day,26%,2 mg/kg/day
Cc1cccc(-c2nc(CCOc3ccc(CC4SC(=O)NC4=O)cc3)c(C)o2)c1 (stereo not drawn),,,49%,0.05 mg/kg/day,61%,0.06 mg/kg/day
Cc1nc(C(=O)COc2ccc(CC3SC(=O)NC3=O)cc2)c(C)o1 (stereo not drawn),39%,27%,,,,
Cc1oc(-c2ccco2)nc1COc1ccc(CC2SC(=O)NC2=O)cc1 (stereo not drawn),43%,35%,,,,
CCc1oc(-c2ccccc2)nc1CCOc1ccc(CC2SC(=O)NC2=O)cc1 (stereo not drawn),55%,79%,49%,0.3 mg/kg/day,55%,0.6 mg/kg/day
Cc1nc(C(O)COc2ccc(/C=C3\SC(=O)NC3=O)cc2)c(C)o1 (stereo not drawn),59%,61%,26%,2.2 mg/kg/day,37%,0.8 mg/kg/day
Cc1oc(CCOc2ccc(CC3SC(=O)NC3=O)cc2)nc1CC(C)C (stereo not drawn),53%,43%,,,,
Cc1nc(COc2ccc(CC3SC(=O)NC3=O)cc2)cs1 (stereo not drawn),19%,30%,,,,
Cc1oc(-c2cccs2)nc1CCOc1ccc(/C=C2\SC(=O)NC2=O)cc1,55%,57%,,,,
Cc1oc(-c2ccccc2Cl)nc1CCOc1ccc(CC2SC(=O)NC2=O)cc1 (stereo not drawn),,,52%,,57%,
CCc1nc(CCOc2ccc(CC3SC(=O)NC3=O)cc2)cs1 (stereo not drawn),55%,37%,,,,
Cc1oc(-c2ccccc2)nc1CCCOc1ccc(CC2SC(=O)NC2=O)cc1 (stereo not drawn),21%,29%,,,,
O=C1NC(=O)C(Cc2ccc(OCc3coc(-c4ccccc4)n3)cc2)S1 (stereo not drawn),48%,51%,16%,3 mg/kg/day,12%,4 mg/kg/day
Cc1oc(C2CCCCC2)nc1CCOc1ccc(CC2SC(=O)NC2=O)cc1 (stereo not drawn),52%,71%,51%,0.2 mg/kg/day,58%,0.6 mg/kg/day
Cc1oc(CCOc2ccc(CC3SC(=O)NC3=O)cc2)nc1-c1ccccc1 (stereo not drawn),54%,60%,,,,
Cc1oc(-c2ccccc2)nc1COc1ccc(/C=C2\SC(=O)NC2=O)cc1,37%,40%,,,,
Cc1nc(CCOc2ccc(CC3SC(=O)NC3=O)cc2)cs1 (stereo not drawn),42%,52%,17%,4 mg/kg/day,15%,4 mg/kg/day
CSc1cccc(-c2nc(CCOc3ccc(/C=C4\SC(=O)NC4=O)cc3)c(C)o2)c1,52%,58%,,,,
CCCc1nc(COc2ccc(CC3SC(=O)NC3=O)cc2)co1 (stereo not drawn),12%,29%,,,,
Cc1oc(CCOc2ccc(CC3SC(=O)NC3=O)cc2)nc1C1CCCCC1 (stereo not drawn),54%,51%,,,,

SMILES,Reduction [1],Reduction [2],Reduction [3],ED25 [4],Reduction [5],ED25 [6]
Cc1oc(-c2ccccc2)nc1C(=O)COc1ccc(CC2SC(=O)NC2=O)cc1 (stereo not drawn),52%,67%,,,,
Cc1nc(CCOc2ccc(CC3SC(=O)NC3=O)cc2)oc1-c1ccccc1 (stereo not drawn),18%,7%,,,,
Cc1oc(C2(C)CCCCC2)nc1CCOc1ccc(/C=C2\SC(=O)NC2=O)cc1,24%,9%,,,,
O=C1NC(=O)C(Cc2ccc(OCc3nc(-c4ccccc4)cs3)cc2)S1 (stereo not drawn),48%,44%,,,,
Cc1oc(-c2ccccc2)nc1C(=O)COc1ccc(/C=C2\SC(=O)NC2=O)cc1,45%,51%,,,,
Cc1nc(COc2ccc(CC3SC(=O)NC3=O)cc2)co1 (stereo not drawn),,1%,19%,,,
O=C1NC(=O)C(Cc2ccc(OCc3nc4ccccc4s3)cc2)S1 (stereo not drawn),43%,43%,,,,
Cc1oc(C2CCCCC2)nc1C(O)COc1ccc(CC2SC(=O)NC2=O)cc1 (stereo not drawn),49%,67%,,,,
CCc1oc(CCOc2ccc(CC3SC(=O)NC3=O)cc2)nc1-c1ccccc1 (stereo not drawn),46%,51%,,,,
Cc1oc(-c2ccc(O)cc2)nc1CCOc1ccc(CC2SC(=O)NC2=O)cc1 (stereo not drawn),,,22%,,26%,
Cc1oc(-c2ccc(Cl)cc2)nc1CCOc1ccc(/C=C2\SC(=O)NC2=O)cc1,54%,58%,,,,
O=C1NC(=O)C(Cc2ccc(OCCc3csc(C4CCCCC4)n3)cc2)S1 (stereo not drawn),,,43%,0.8 mg/kg/day,33%,3 mg/kg/day
Cc1scnc1CCOc1ccc(CC2SC(=O)NC2=O)cc1 (stereo not drawn),52%,45%,,,,
CCc1ccc(CCOc2ccc(CC3SC(=O)NC3=O)cc2)nc1.Cl (stereo not drawn) [PIOGLITAZONE HYDROCHLORIDE],,,,6 mg/kg/day,,6 mg/kg/day
CC1(COc2ccc(CC3SC(=O)NC3=O)cc2)CCCCC1 (stereo not drawn) [CIGLITAZONE],,,,31 mg/kg/day,,25 mg/kg/day
O=C1NC(=O)C(Cc2ccc(OCCc3coc(C4CCCCC4)n3)cc2)S1 (stereo not drawn),,,31%,1 mg/kg/day,14%,9 mg/kg/day
CC(C)c1nc(CCOc2ccc(CC3SC(=O)NC3=O)cc2)cs1 (stereo not drawn),56%,45%,,,,
CSc1cccc(-c2nc(CCOc3ccc(CC4SC(=O)NC4=O)cc3)c(C)o2)c1 (stereo not drawn),52%,67%,,,,
CCc1oc(-c2ccccc2)nc1CCOc1ccc(/C=C2\SC(=O)NC2=O)cc1,54%,59%,,,,
O=C1NC(=O)C(Cc2ccc(OCc3csc(-c4cccnc4)n3)cc2)S1 (stereo not drawn),25%,30%,,,,
Cc1nc(CCOc2ccc(/C=C3\SC(=O)NC3=O)cc2)cs1,34%,5%,,,,
Cc1oc(-c2ccccc2)nc1CCOc1ccc(/C=C2\SC(=O)NC2=O)cc1,,,55%,0.4 mg/kg/day,65%,0.2 mg/kg/day
COc1ccc(-c2nc(CCOc3ccc(CC4SC(=O)NC4=O)cc3)c(C)o2)cc1OC (stereo not drawn),,,52%,0.5 mg/kg/day,54%,0.6 mg/kg/day
O=C1NC(=O)C(Cc2ccc(OCCc3nc(-c4ccccc4)oc3CO)cc2)S1 (stereo not drawn),31%,39%,,,,

# Source: ChEMBL document CHEMBL1125480, “Studies on antidiabetic agents. 11. Novel thiazolidinedione derivatives as potent hypoglycemic and hypolipidemic agents” (1992)
